Source: paper PMC6906431, “Selective small molecule PARG inhibitor causes replication fork stalling and cancer cell death” (Nature Communications, 2019)
Values joined by “and” are separate entries in the source; they are usually repeats but may differ in a detail not shown here. Equal entries are not always repeated. Where two headings read alike, the source gives them in different places.

How the values were obtained:
MCF-7 cells = assay: Clonogenic survival assay; assay type: cell-based, human
Experimental: (§1) Fig. 6 Selective inhibition of PARG by xanthine derivative JA2131. a Clonogenic survival assays of PC3, MDA-MB-231, and MCF-7 cells treated with PARGi. Cells were treated with either DMSO or 10 µM JA2131 for 2 h, irradiated with 3 Gy (MDA-MB-231 and MCF-7), 7 Gy (PC3) IR and grown for ~2 weeks, then colonies were fixed with methanol and stained with crystal violet. The results of three independent experiments are shown. Error bars = the standard error of the mean (SEM). b dose-response of JA2131 in MDA-MB-231 cells with and without IR. Cells were treated with designated concentrations of JA2131 for 2 h and then either left untreated or exposed to 3 Gy IR and allowed to recover for 1 h before lysis. Total protein was immunoblotted with anti-PAR antibody (upper panel), stripped and reprobed with anti-PCNA as a loading control. c MDA-MB-231 cells with stable scrambled shRNA (WT) or stable PARG shRNA, knockdown (KD), were treated with 5 μM JA2131 for 2 h, lysed and then total lysates were immunoblotted for anti-PAR (upper panel) followed by anti-PARG (upper middle panel), anti-PARP1 (lower middle panel) and anti-actin (bottom panel) antibody. […] Stable cells with scramble shRNA (control) and shPARG (PARG-KD) cells were treated with an increasing concentration of JA2131 for growth inhibitory IC50 determination. The data was normalized against 100% survival at the lowest inhibitor concentration. Error bars show the percent coefficient of variation. Equivalent concentrations of DMSO were used as a negative control. e The cytotoxicity of JA2131 along with PDD, Veliparib and Doxorubicin against MRC-5 cells. Error bars show the percent coefficient of variation. f CETSA for in-cell JA2131 target engagement. Normalized anti-PARG western blot intensities of three independent experiments were fitted as above and the estimated aggregation temperature (Tagg) is shown in the tabulated insert. Source Data are provided as a Source Data file.
(§2) PC3, MDA-MB-231 cells were maintained in RPMI 1640, MCF-7 cells in Eagle’s Minimum Essential Medium (EMEM), MRC-5 cells in Eagle’s Minimum Essential Medium and Hela and U2OS cells in Dulbecco’s modified Eagle’s high glucose medium (DMEM) supplemented with 10% (vol/vol) fetal bovine serum (FBS) and 1% antibiotic/antimycotic (Lonza) in a humidified incubator with 10% CO2. All cell lines were purchased from ATCC and regularly checked for mycoplasma and cell authentication. SUM 149PT cells were cultured in F-12 Hams (Gibco) supplemented with 5% fetal bovine serum, insulin, and hydrocortisone. Colony formation assays were carried out in 6-well plates, 500 cells were used per well and following designated treatment, and colonies were grown for 2 weeks. Cells were fixed with methanol (100%), stained with crystal violet and analyzed using a GelCount instrument (Oxford Optronix Ltd). Crystal Violet C6158 was purchased from Sigma. PARG knockdown cells were generated by infecting MDA-MB-231 cells with shPARG lentiviral particles (sc-106355-V, Santa Cruz Biotechnology), which contain a pool of three shRNA plasmids. After 24 h infection, 3 µg/ml puromycin (Invitrogen) was added and antibiotic-resistant cells were further expanded and used for experimentation. Sequence-1; hairpin sequence: […], sense: […]tt, Antisense: […]tt. Sequence-2; hairpin sequence, […]-[…], sense: […]tt, antisense: […]tt. Sequence-3; hairpin sequence: […]-[…], sense: […]tt, antisense: […]-GGUUUCCtt. Control cells were generated using the same process except that scramble lentiviral particles with scrambled sequences were used (sc-108080).
(§3) Supplementary Fig. 8: Clonogenic survival of cells in the presence of PARGi and PARPi (a)
(§4) Clonogenic survival of PC3 cells in response to indicated compounds. ( b) Clonogenic survival of
(§5) MDA-MB-231 cells in response to i ndicated compounds. (c) Clonogenic survival of MCF -7 cells
(§6) in response to indicated compounds. […]

PC3 cells [1] = assay: Clonogenic survival assay; assay type: cell-based, human; conditions: PC3
Experimental: as §1, §2, §3, §4, §5, §6

MDA-MB-231 cells = assay: Clonogenic survival assay; assay type: cell-based, human; conditions: MDA-MB-231
Experimental: as §1, §2, §3, §4, §5, §6

[2] = Sulforhodamine B (SRB) cytotoxicity assay; conditions: human, PC3 cells, Viability; for viability at 72 h, 1.95 µM: log [concentration] μM 0.290702; for viability at 72 h, 3.91 µM: log [concentration] μM 0.591732; for viability at 72 h, 7.81 µM: log [concentration] μM 0.892818; for viability at 72 h, 15.63 µM: log [concentration] μM 1.19382; for viability at 72 h, 31.25 µM: log [concentration] μM 1.49485; for viability at 72 h, 62.5 µM: log [concentration] μM 1.79588; for viability at 72 h, 125 µM: log [concentration] μM 2.09691; for viability at 72 h, 250 µM: log [concentration] μM 2.39794; for viability at 72 h, 500 µM: log [concentration] μM 2.69897; for viability at 72 h, 1000 µM: log [concentration] μM 3; for viability at 72 h, 2000 µM: log [concentration] μM 3.30103
PARG = conditions: cited from earlier work
MRC-5 cells = assay: Sulforhodamine B (SRB) cytotoxicity assay; assay type: cell-based, human; conditions: Homo sapiens, MRC5, 72 h
Experimental: as §1

[3] = Sulforhodamine B (SRB) cytotoxicity assay; assay type: cell-based, human; conditions: human, MRC-5 cells
Experimental: as §1

PC3 cells [4] = assay: Sulforhodamine B (SRB) cytotoxicity assay; conditions: Homo sapiens, PC-3, 72 h, without IR

O=C(c1cc(Cc2n[nH]c(=O)c3ccccc23)ccc1F)N1CCN(C(=O)C2CC2)CC1 [Olaparib, reference compound]
colony count (clonogenic survival, raw replicate data, Supplementary Figure 8) (MCF-7 cells; Experiment-1, replicates 1-6): 14 and 16 and 15 and 5 and 13 and 26
colony count (clonogenic survival, raw replicate data, Supplementary Figure 8) (MCF-7 cells; Experiment-2, replicates 1-6): 25 and 5 (2×) and 4 and 1 and 2
colony count (clonogenic survival, raw replicate data, Supplementary Figure 8) (MCF-7 cells; Experiment-3, replicates 1-6): 18 (2×) and 15 and 17 and 16 and 5
colony count (clonogenic survival, raw replicate data, Supplementary Figure 8) (PC3 cells [1]; Experiment-1, replicates 1-6): 5 and 10 and 21 and 13 and 39 and 16
colony count (clonogenic survival, raw replicate data, Supplementary Figure 8) (PC3 cells [1]; Experiment-2, replicates 1-6): 6 (3×) and 1 and 0 and 11
colony count (clonogenic survival, raw replicate data, Supplementary Figure 8) (PC3 cells [1]; Experiment-3, replicates 1-6): 0 (2×) and 3 (3×) and 1
colony count (clonogenic survival, raw replicate data, Supplementary Figure 8) (MDA-MB-231 cells; Experiment-1, replicates 1-6): 0 and 1 (2×) and 2 (2×) and 3
colony count (clonogenic survival, raw replicate data, Supplementary Figure 8) (MDA-MB-231 cells; Experiment-2, replicates 1-6): 1 (3×) and 2 (2×) and 3
colony count (clonogenic survival, raw replicate data, Supplementary Figure 8) (MDA-MB-231 cells; Experiment-3, replicates 1-6): 2 and 1 (3×) and 4 and 3
viability at 72 h, 1.95 µM ([2]; +IR 7.0 Gy): 100%
viability at 72 h, 3.91 µM ([2]; +IR 7.0 Gy): 101%
viability at 72 h, 7.81 µM ([2]; +IR 7.0 Gy): 101%
viability at 72 h, 15.63 µM ([2]; +IR 7.0 Gy): 99.1%
viability at 72 h, 31.25 µM ([2]; +IR 7.0 Gy): 79.9%
viability at 72 h, 62.5 µM ([2]; +IR 7.0 Gy): 52.4%
viability at 72 h, 125 µM ([2]; +IR 7.0 Gy): 32.6%
viability at 72 h, 250 µM ([2]; +IR 7.0 Gy): 16.5%
viability at 72 h, 500 µM ([2]; +IR 7.0 Gy): 11.1%
viability at 72 h, 1000 µM ([2]; +IR 7.0 Gy): 11.4%
viability at 72 h, 2000 µM ([2]; +IR 7.0 Gy): 10.8%
viability at 72 h, 1.95 µM ([2]; -IR): 100%
viability at 72 h, 3.91 µM ([2]; -IR): 102%
viability at 72 h, 7.81 µM ([2]; -IR): 94.4%
viability at 72 h, 15.63 µM ([2]; -IR): 77.7%
viability at 72 h, 31.25 µM ([2]; -IR): 53.3%
viability at 72 h, 62.5 µM ([2]; -IR): 34.7%
viability at 72 h, 125 µM ([2]; -IR): 20.2%
viability at 72 h, 250 µM ([2]; -IR): 9.43%
viability at 72 h, 500 µM ([2]; -IR): 5.75%
viability at 72 h, 1000 µM ([2]; -IR): 6.34%
viability at 72 h, 2000 µM ([2]; -IR): 6.26%

Nc1ncnc2c1ncn2[C@@H]1O[C@H](CO[P@](=O)(O)O[P@@](=O)(O)OC[C@H]2NC[C@H](O)[C@@H]2O)[C@@H](O)[C@H]1O [ADP-HPD, adenosine diphosphate (hydroxymethyl)pyrrolidinediol, reference compound]
IC50 (PARG; read-out: IC50, published values): 100 to 1400 nM

O=C(OC[C@H]1O[C@@H](OC(=O)c2cc(O)c(O)c(OC(=O)c3cc(O)c(O)c(O)c3)c2)[C@H](OC(=O)c2cc(O)c(O)c(OC(=O)c3cc(O)c(O)c(O)c3)c2)[C@@H](OC(=O)c2cc(O)c(O)c(OC(=O)c3cc(O)c(O)c(O)c3)c2)[C@@H]1OC(=O)c1cc(O)c(O)c(OC(=O)c2cc(O)c(O)c(O)c2)c1)c1cc(O)c(O)c(OC(=O)c2cc(O)c(O)c(O)c2)c1 [Gallotannin]
IC50 (PARG; read-out: IC50): < 5000 nM

COc1cccc2c1C(=O)c1c(O)c3c(c(O)c1C2=O)C[C@@](O)(C(=O)CO)C[C@@H]3O[C@H]1C[C@H](N)[C@H](O)[C@H](C)O1 [Doxorubicin]
IC50 (MRC-5 cells): 741 ± 100 nM
viability at 72 h, 1.55 µM ([3]; log [concentration] μM 0.19): 50.4%
viability at 72 h, 3.09 µM ([3]; log [concentration] μM 0.49): 47.4%
viability at 72 h, 6.31 µM ([3]; log [concentration] μM 0.8): 50%
viability at 72 h, 12.6 µM ([3]; log [concentration] μM 1.1): 50%
viability at 72 h, 25.1 µM ([3]; log [concentration] μM 1.4): 45.6%
viability at 72 h, 0.776 µM ([3]; log [concentration] μM -0.11): 71.7%
viability at 72 h, 0.389 µM ([3]; log [concentration] μM -0.41): 96.5%
viability at 72 h, 0.195 µM ([3]; log [concentration] μM -0.71): 100%
IC50 (PC3 cells [4]): 810 ± 300 nM
viability at 72 h, 1.56 µM ([2]; without IR, log [concentration] μM 0.194): 17.2%
viability at 72 h, 3.13 µM ([2]; without IR, log [concentration] μM 0.495): 11.1%
viability at 72 h, 6.25 µM ([2]; without IR, log [concentration] μM 0.796): 10.1%
viability at 72 h, 12.5 µM ([2]; without IR, log [concentration] μM 1.097): 9.95%
viability at 72 h, 25 µM ([2]; without IR, log [concentration] μM 1.398): 9.74%
viability at 72 h, 50 µM ([2]; without IR, log [concentration] μM 1.699): 9.95%
viability at 72 h, 100 µM ([2]; without IR, log [concentration] μM 2): 10.6%
viability at 72 h, 200 µM ([2]; without IR, log [concentration] μM 2.301): 13.8%
viability at 72 h, 0.78 µM ([2]; without IR, log [concentration] μM -0.107): 58.5%
viability at 72 h, 0.39 µM ([2]; without IR, log [concentration] μM -0.408): 95%
viability at 72 h, 0.098 µM ([2]; without IR, log [concentration] μM -1.009): 100%
